Measurements from patent EP0462585B1, “Herbicidal composition” (ISHIHARA SANGYO KAISHA, LTD., priority 1990, dated 1991).
Structures can show the parent of a compound that is named as a salt. Where two headings read alike, the source gives them in different places.

Tests used:
Type in all cases: in vivo
Solidago altissima = assay: Test Example 1 foliage treatment test, fresh weight of foliage; details: foliar, 600 h, read-out: Growth Inhibition Rate (%)
From the text: Upland soil was placed in 1/5000-are (are (a) = 100 m²) wagner pots and planted with hills of Solidago altissima collected in the fields, and the hills were thereafter grown in a greenhouse. When the plant height reached 20 to 30 cm, a predetermined amount of each herbicidal composition which had been diluted with 15 ℓ, per are, of water and further admixed with 0.05 % (v/v) of a spreader (Shin Rino®: manufactured by Nihon Nohyaku Co., Ltd.) was foliarly applied on the plants using a small spray gun. 25 days after the foliage treatment application, the fresh weight of foliage was measured. The growth inhibition rate (%), which is listed in Table 1, was calculated according to the following equation: Growth Inhibition Rate (%) = (1 -(Fresh Weight of Foliage in Treated Plot)/(Fresh Weight of Foliage in Untreated Plot)) x 100 [formula]

Digitaria sanguinalis = assay: Test Example 2 foliage treatment test, fresh weight of aerial part; Colby expected value; details: foliar, 480 h, read-out: Growth Inhibition Rate (%) Found
From the text: However, there may be a case that when two kinds of active ingredients are applied in combination, the resulting herbicidal activity is higher than one obtained by simply summing up the activity of each of the two active ingredients (i.e., an expected activity). In such a case, it is said that a synergistic action is found. The expected activity which is brought by a specific combination of two kinds of herbicides can be calculated by the following equation as described, for example, in S.R. Colby, Weeds, "Calculating Synergistic and Antagonistic Responses of Herbicide Combinations", Vol. 15, pp. 20-22 (1967). E = α + β -(α x β)/(100) [formula] In the above equation, α represents a growth inhibition rate (%) when treated with a (g/are) of herbicide A; β represents a growth inhibition rate (%) when treated with b (g/are) of herbicide B; and E represents an expected growth inhibition rate (%) when treated with a (g/are) of herbicide A and b (g/are) of herbicide B.
Upland soil was placed in 1/10000-are pots and sown with Digitaria sanguinalis. When the plants reached the four-leaf stage, a predetermined amount of each herbicidal composition which had been diluted with 15 ℓ, per are, of water and further admixed with 0.2 % (v/v) of a spreader (Shin Rino®) was foliarly applied on the plants using a small spray gun. 20 days after the foliage treatment application, the fresh weight of the aerial part of the plant was measured. The growth inhibition rate (%) calculated by the equation given in Test Example 1 (found value) and the growth inhibition rate (%) calculated by the above-cited Colby equation (calculated value) are listed in Table 2.

[1] = test system: weeds such as Solidago altissima, Agropyron smithii and Digitaria sanguinalis; assay: Test Example 3 field foliage treatment test, visual rating of herbicidal effect; details: visual observation 30 days after foliage treatment
From the text: In a field where weeds such as Solidago altissima, Agropyron smithii and Digitaria sanguinalis had been growing mixedly, foliage treatment application of a predetermined amount of each herbicidal composition which had been diluted with 15 ℓ, per are, of water and further admixed with 0.05 % (v/v) of a spreader (Shin Rino®) was done using a small spray gun when the average plant height of these weeds reached 20 to 40 cm. 30 days after the foliage treatment application, the herbicidal effect of the herbicidal composition was examined through visual observation according to the following evaluation criteria.

For CP(=O)(O)CCC(N)C(=O)O (racemic) [Ammonium salt of D,L-isomer of Compound B, D,L-homoalanin-4-yl(methyl)phosphinic acid], the inhibition at 250 g/ha (Solidago altissima) was 55%, the inhibition at 500 g/ha (Solidago altissima) was 72% and the inhibition at 1000 g/ha (Solidago altissima) was 84%. The inhibition at 30 g/ha (Digitaria sanguinalis) was 0.9%, the inhibition at 50 g/ha (Digitaria sanguinalis) was 12.8% and the inhibition at 100 g/ha (Digitaria sanguinalis) was 35.8%. It also gave an inhibition at 200 g/ha (Digitaria sanguinalis) of 52.3%, an inhibition at 300 g/ha (Digitaria sanguinalis) of 85% and an inhibition at 400 g/ha (Digitaria sanguinalis) of 90%. The inhibition at 1000 g/ha (Digitaria sanguinalis) was 100%, the Rating ([1]; 5 g/a active ingredient) was 5 (50 to 59) and the Rating ([1]; 10 g/a active ingredient) was 7 (70 to 79).
For CP(=O)(O)CC[C@H](N)C(=O)O [Ammonium salt of L-isomer of Compound B, L-homoalanin-4-yl(methyl)phosphinic acid], the inhibition at 125 g/ha (Solidago altissima) was 48%, the inhibition at 250 g/ha (Solidago altissima) was 68% and the inhibition at 500 g/ha (Solidago altissima) was 77%. For the same molecule, the Rating ([1]; 5 g/a active ingredient) was 5 (50 to 59) and the Rating ([1]; 10 g/a active ingredient) was 6 (60 to 69).
Work on COc1cc(OC)nc(NC(=O)NS(=O)(=O)c2ncccc2C(F)(F)F)n1 [Compound A, 1-(4,6-dimethoxypyrimidin-2-yl)-3-(3-trifluoromethyl-2-pyridylsulfonyl)urea] yielded an inhibition at 25 g/ha (Solidago altissima; 0.25 g/a active ingredient, 25 days after foliage treatment) of 46%, an inhibition at 50 g/ha (Solidago altissima; 0.5 g/a active ingredient, 25 days after foliage treatment) of 51% and an inhibition at 100 g/ha (Solidago altissima; 1 g/a active ingredient, 25 days after foliage treatment) of 63%. It also gave an inhibition at 5 g/ha (Digitaria sanguinalis; 0.05 g/a active ingredient, 20 days after foliage treatment) of 0%, an inhibition at 10 g/ha (Digitaria sanguinalis; 0.1 g/a active ingredient, 20 days after foliage treatment) of 3.5% and an inhibition at 20 g/ha (Digitaria sanguinalis; 0.2 g/a active ingredient, 20 days after foliage treatment) of 5.3%. It also gave an inhibition at 40 g/ha (Digitaria sanguinalis; 0.4 g/a active ingredient, 20 days after foliage treatment) of 16.9%, an inhibition at 60 g/ha (Digitaria sanguinalis; 0.6 g/a active ingredient, 20 days after foliage treatment) of 47.4% and an inhibition at 100 g/ha (Digitaria sanguinalis; 1 g/a active ingredient, 20 days after foliage treatment) of 67.3%. The inhibition at 500 g/ha (Digitaria sanguinalis; 5 g/a active ingredient, 20 days after foliage treatment) was 99.4%, the Rating ([1]; 0.5 g/a active ingredient) was 5 (50 to 59) and the Rating ([1]; 1 g/a active ingredient) was 6 (60 to 69).
C[C@H](NC(=O)[C@H](C)NC(=O)C(N)CCP(C)(=O)O)C(=O)O (stereo partly drawn) [Sodium salt of L-isomer of Compound C, L-2-amino-4-[(hydroxy)(methyl)phosphinoyl]butyryl-L-alanyl-L-alanine] gave an inhibition at 250 g/ha (Solidago altissima; 2.5 g/a active ingredient, 25 days after foliage treatment) of 51%, an inhibition at 500 g/ha (Solidago altissima; 5 g/a active ingredient, 25 days after foliage treatment) of 70% and an inhibition at 1000 g/ha (Solidago altissima; 10 g/a active ingredient, 25 days after foliage treatment) of 79%. The Rating ([1]; 5 g/a active ingredient) was 5 (50 to 59) and the Rating ([1]; 10 g/a active ingredient) was 6 (60 to 69).
